Source: patent publication US9809574B2, “Isoindoline or isoquinoline compounds, a process for their preparation and pharmaceutical compositions containing them” (LES LABORATOIRES SERVIER, priority 2013, dated 2017)
Where a name gives a salt, the structure may show the parent alone.

Experiments:
[1] = tested on: RS4; 11 leukaemia cell line; experiment: In vitro cytotoxicity, Microculture Tetrazolium Assay (MTT); assay type: cell-based; details: 11 cells exposed for 48 hours
Experimental: The cytotoxicity studies were carried out on the RS4; 11 leukaemia cell line and on H146 small Cell Lung Carcinoma cell line. The cells are distributed onto microplates and exposed to the test compounds for 48 hours. The cell viability is then quantified by a colorimetric assay, the Microculture Tetrazolium Assay (Cancer Res., 1987, 47, 939-942).

Bcl-2 protein = Bcl-2 protein (histag-Bcl-2, UniProtKB P10415) (Homo sapiens (Human), UniProt P10415); experiment: Inhibition of Bcl-2 by the fluorescence polarisation technique; assay type: binding; details: for IC50: fluorescence polarisation test, incubation for 2 hours, read-out: IC50 (nM) Bcl-2 FP
Text: For partial inhibitors, the percentage fluorescence polarisation inhibition for a given concentration of the test compound is indicated.

Chain of Bcl-2 protein (P10415 whole entry): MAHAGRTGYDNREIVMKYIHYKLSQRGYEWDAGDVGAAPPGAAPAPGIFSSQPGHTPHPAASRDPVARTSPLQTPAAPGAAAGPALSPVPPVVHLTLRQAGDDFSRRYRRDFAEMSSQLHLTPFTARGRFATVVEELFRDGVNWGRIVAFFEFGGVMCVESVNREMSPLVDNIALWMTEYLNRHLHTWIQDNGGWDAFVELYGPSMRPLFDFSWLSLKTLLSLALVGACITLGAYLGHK

Row | SMILES | IC50 (Bcl-2 protein) | inhibition at 3.3 µM (Bcl-2 protein; partial inhibitor, concentration of test compound 3.3 μM, read-out: percentage fluorescence polarisation inhibition (Bcl-2 FP)) | IC50 ([1]; Homo sapiens) | IC50 [1]
1 | Cc1c(C(=O)N(C)c2ccc(O)cc2)cc(-c2cc3c(cc2C(=O)N2Cc4ccccc4C[C@H]2C)CN(C(=O)OC2CCCCC2)CC3)n1C [Example 790, Cyclohexyl 6-{4-[(4-hydroxyphenyl)(methyl)carbamoyl]-1,5-dimethyl-1H-pyrrol-2-yl}-7-[(3R)-3-methyl-1,2,3,4-tetrahydroisoquinoline-2-carbonyl]-1,2,3,4-tetrahydroisoquinoline-2-carboxylate] | 3.4 nM | – | 20 nM | –
2 | Cc1c(C(=O)N(C)c2ccc(O)cc2)cc(-c2cc3c(cc2C(=O)N2Cc4ccccc4C[C@H]2C)CN(C(=O)Oc2ccccc2CCC(=O)N(C)C)CC3)n1C [Example 775, 2-[2-(Dimethylcarbamoyl)ethyl]phenyl 6-{4-[(4-hydroxyphenyl)(methyl)carbamoyl]-1,5-dimethyl-1H-pyrrol-2-yl}-7-[(3R)-3-methyl-1,2,3,4-tetrahydroisoquinoline-2-carbonyl]-1,2,3,4-tetrahydroisoquinoline-2-carboxylate] | 2.4 nM | – | 6.3 nM | –
3 | C[C@@H]1Cc2ccccc2CN1C(=O)c1cc2c(cc1-c1cc(C(=O)N(C)c3ccc(O)cc3)c3n1CCCC3)CCN(C(=O)Cc1ccc(C#N)cc1)C2 [Example 53, 3-{2-[2-(4-Cyanophenyl)acetyl]-7-[(3R)-3-methyl-1,2,3,4-tetrahydroisoquinoline-2-carbonyl]-1,2,3,4-tetrahydroisoquinolin-6-yl}-N-(4-hydroxyphenyl)-N-methyl-5,6,7,8-tetrahydroindolizine-1-carboxamide] | 2.4 nM | – | 5 nM | –
4 | Cc1ccc(OC(=O)N2CCc3cc(-c4cc(C(=O)N(C)c5ccc(O)cc5)c(C)n4C)c(C(=O)N4Cc5ccccc5C[C@H]4CN4CCOCC4)cc3C2)cc1 [Example 139, 4-Methylphenyl 6-{4-[(4-hydroxyphenyl)(methyl)carbamoyl]-1,5-dimethyl-1H-pyrrol-2-yl}-7-[(3S)-3-(morpholin-4-ylmethyl)-1,2,3,4-tetrahydroisoquinoline-2-carbonyl]-1,2,3,4-tetrahydroisoquinoline-2-carboxylate] | 5.1 nM | – | 0.84 nM | –
5 | C[C@@H]1Cc2ccccc2CN1C(=O)c1cc2c(cc1-c1cc(C(=O)N(C)c3ccc(O)cc3)c3n1CCCC3)CN(C(=O)COc1ccc(Cl)cc1)C2 [Example 49, 3-{2-[2-(4-Chlorophenoxy)acetyl]-6-[(3R)-3-methyl-1,2,3,4-tetrahydroisoquinoline-2-carbonyl]-2,3-dihydro-1H-isoindol-5-yl}-N-(4-hydroxyphenyl)-N-methyl-5,6,7,8-tetrahydroindolizine-1-carboxamide] | 23 nM | – | 58 nM | –
6 | CN(C(=O)c1cc(-c2cc3c(cc2C(=O)N2Cc4ccccc4C[C@H]2CN2CCOCC2)CNC3)n2c1CCCC2)c1ccc(O)cc1 [Example 7, N-(4-Hydroxyphenyl)-N-methyl-3-{6-[(3S)-3-(morpholin-4-ylmethyl)-1,2,3,4-tetrahydroisoquinoline-2-carbonyl]-2,3-dihydro-1H-isoindol-5-yl}-5,6,7,8-tetrahydroindolizine-1-carboxamide; dihydrochloride salt] | – | 72% | 1080 nM | –
7 | C[C@@H]1Cc2ccccc2CN1C(=O)c1cc2c(cc1-c1cc(C(=O)N(c3ccccc3)c3ccc(O)cc3)c3n1CCCC3)CN(C(=O)OC(C)(C)C)C2 [Example 43, tert-Butyl 5-{1-[(4-hydroxyphenyl)(phenyl)carbamoyl]-5,6,7,8-tetrahydroindolizin-3-yl}-6-[(3R)-3-methyl-1,2,3,4-tetrahydroisoquinoline-2-carbonyl]-2,3-dihydro-1H-isoindole-2-carboxylate] | 77 nM | – | 502 nM | –
8 | Cc1c(C(=O)N(C)c2ccccc2)cc(-c2cc3c(cc2C(=O)N2Cc4ccccc4C[C@H]2C)CN(C(=O)Oc2cccc(N(C)CCN(C)C)c2)CC3)n1C [Example 446, 3-{[2-(Dimethylamino)ethyl](methyl)amino}phenyl 6-{1,5-dimethyl-4-[methyl(phenyl)carbamoyl]-1H-pyrrol-2-yl}-7-[(3R)-3-methyl-1,2,3,4-tetrahydroisoquinoline-2-carbonyl]-1,2,3,4-tetrahydroisoquinoline-2-carboxylate] | 4.3 nM | – | 14 nM | –
9 | Cc1c(C(=O)N(C)c2ccccc2)cc(-c2cc3c(cc2C(=O)N2Cc4ccccc4C[C@H]2C)CN(C(=O)Oc2ccc(N(C)CCN(C)C)cc2)CC3)n1C [Example 488, 4-{[2-(Dimethylamino)ethyl](methyl)amino}phenyl 6-{1,5-dimethyl-4-[methyl(phenyl)carbamoyl]-1H-pyrrol-2-yl}-7-[(3R)-3-methyl-1,2,3,4-tetrahydroisoquinoline-2-carbonyl]-1,2,3,4-tetrahydroisoquinoline-2-carboxylate] | 5.3 nM | – | 13 nM | –
10 | Cc1c(C(=O)N(C)c2ccc(O)cc2)cc(-c2cc3c(cc2C(=O)N2Cc4ccccc4C[C@H]2C)CN(C(=O)OC2CCC(N(C)C)CC2)CC3)n1C (stereo partly drawn) [Example 802, (1r,4r)-4-(Dimethylamino)cyclohexyl 6-{4-[(4-hydroxyphenyl)(methyl)carbamoyl]-1,5-dimethyl-1H-pyrrol-2-yl}-7-[(3R)-3-methyl-1,2,3,4-tetrahydroisoquinoline-2-carbonyl]-1,2,3,4-tetrahydroisoquinoline-2-carboxylate] | 4 nM | – | – | 99 nM

The next lines start with results.

Row | IC50 (Bcl-2 protein) | inhibition at 3.3 µM (Bcl-2 protein; partial inhibitor, concentration of test compound 3.3 μM, read-out: percentage fluorescence polarisation inhibition (Bcl-2 FP)) | SMILES | IC50 ([1]; Homo sapiens) | IC50 [1]
11 | 43 nM | – | CN(C(=O)c1cc(-c2cc3c(cc2C(=O)N2Cc4ccccc4C[C@H]2CN2CCOCC2)CN(S(=O)(=O)c2ccc4ccccc4c2)CC3)n2c1CCCC2)c1ccc(O)cc1 [Example 5, N-(4-Hydroxyphenyl)-N-methyl-3-{7-[(3S)-3-(morpholin-4-ylmethyl)-1,2,3,4-tetrahydroisoquinoline-2-carbonyl]-2-(naphthalene-2-sulfonyl)-1,2,3,4-tetrahydroisoquinolin-6-yl}-5,6,7,8-tetrahydroindolizine-1-carboxamide] | 70 nM | –
12 | 51 nM | – | Cc1c(C(=O)N(C)c2ccc(O)cc2)cc(-c2cc3c(cc2C(=O)N2Cc4ccccc4C[C@H]2CN(C)C)CN(C(=O)C(F)(F)F)CC3)n1C [Example 782, 5-{7-[(3S)-3-[(Dimethylamino)methyl]-1,2,3,4-tetrahydroisoquinoline-2-carbonyl]-2-(trifluoroacetyl)-1,2,3,4-tetrahydroisoquinolin-6-yl}-N-(4-hydroxyphenyl)-N,1,2-trimethyl-1H-pyrrole-3-carboxamide] | 112 nM | –
13 | 4.2 nM | – | Cc1c(C(=O)N(C)c2ccc(O)cc2)cc(-c2cc3c(cc2C(=O)N2Cc4ccccc4C[C@H]2CN2CCOCC2)CN(C(=O)Nc2ccccc2)CC3)n1C [Example 245, 6-{4-[(4-Hydroxyphenyl)(methyl)carbamoyl]-1,5-dimethyl-1H-pyrrol-2-yl}-7-[(3S)-3-(morpholin-4-ylmethyl)-1,2,3,4-tetrahydroisoquinoline-2-carbonyl]-N-phenyl-1,2,3,4-tetrahydroisoquinoline-2-carboxamide] | 92 nM | –
14 | 6.2 nM | – | Cc1c(C(=O)N(C)c2ccc(O)cc2)cc(-c2cc3c(cc2C(=O)N2Cc4ccccc4C[C@H]2CN2CCOCC2)CN(C(=O)OC2CCCC2)CC3)n1C [Example 796, Cyclopentyl 6-{4-[(4-hydroxyphenyl)(methyl)carbamoyl]-1,5-dimethyl-1H-pyrrol-2-yl}-7-[(3S)-3-(morpholin-4-ylmethyl)-1,2,3,4-tetrahydroisoquinoline-2-carbonyl]-1,2,3,4-tetrahydroisoquinoline-2-carboxylate] | 48 nM | –
15 | 8.4 nM | – | COc1cccc(CCC(=O)N2CCc3cc(-c4cc(C(=O)N(C)c5ccc(O)cc5)c(C)n4C)c(C(=O)N4Cc5ccccc5C[C@H]4CN4CCOCC4)cc3C2)c1 [Example 135, N-(4-Hydroxyphenyl)-5-{2-[3-(3-methoxyphenyl)propanoyl]-7-[(3S)-3-(morpholin-4-ylmethyl)-1,2,3,4-tetrahydroisoquinoline-2-carbonyl]-1,2,3,4-tetrahydroisoquinolin-6-yl}-N,1,2-trimethyl-1H-pyrrole-3-carboxamide] | 99 nM | –
16 | 4.6 nM | – | Cc1c(C(=O)N(C)c2ccc(O)cc2)cc(-c2cc3c(cc2C(=O)N2Cc4ccccc4C[C@H]2CN2CCOCC2)CN(C(=O)CCC2CCCCC2)CC3)n1C [Example 132, 5-[2-(3-Cyclohexylpropanoyl)-7-[(3S)-3-(morpholin-4-ylmethyl)-1,2,3,4-tetrahydroisoquinoline-2-carbonyl]-1,2,3,4-tetrahydroisoquinolin-6-yl]-N-(4-hydroxyphenyl)-N,1,2-trimethyl-1H-pyrrole-3-carboxamide] | 32 nM | –
17 | 2.8 nM | – | Cc1c(C(=O)N(C)c2ccc(O)cc2)cc(-c2cc3c(cc2C(=O)N2Cc4ccccc4C[C@H]2CN2CCOCC2)CN(C(=O)OC2CCCCC2)CC3)n1C [Example 791, Cyclohexyl 6-{4-[(4-hydroxyphenyl)(methyl)carbamoyl]-1,5-dimethyl-1H-pyrrol-2-yl}-7-[(3S)-3-(morpholin-4-ylmethyl)-1,2,3,4-tetrahydroisoquinoline-2-carbonyl]-1,2,3,4-tetrahydroisoquinoline-2-carboxylate] | 54 nM | –
18 | 20 nM | – | C[C@@H]1Cc2ccccc2CN1C(=O)c1cc2c(cc1-c1cc(C(=O)N(C)c3ccc(O)cc3)c3n1CCCC3)CN(CC(=O)Nc1ccccc1)C2 [Example 92, N-(4-Hydroxyphenyl)-N-methyl-3-{6-[(3R)-3-methyl-1,2,3,4-tetrahydroisoquinoline-2-carbonyl]-2-[(phenylcarbamoyl)methyl]-2,3-dihydro-1H-isoindol-5-yl}-5,6,7,8-tetrahydroindolizine-1-carboxamide] | 105 nM | –
